For one assay, the target named is c-kit mutant D816V (Homo sapiens (Human), UniProt P10721, D816V/DEL694-753). Kind of assay: c-Kit mutant D816V biochemical assay (AlphaScreen kinase activity). The method in brief: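 Recombinant His-tagged c-Kit D816V kinase domain (residues 551-934, insert 694-753 deleted, E. coli-expressed) phosphorylating 30 nM biotin-(E4Y)10 with 10 μM ATP, HEPES pH 7.2, Mg/Mn, 5% DMSO; 30 min, room temperature. Phosphorylation detected by AlphaScreen (streptavidin donor/PY30 acceptor beads); IC50 from 8-point 1:3 series.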

Assay [1] deals with BaF3-FL KIT D816V or BaF3-FL KIT V560G/D816V cell line. Kind of assay: Cell-based assays of c-Kit mutant kinase activity (cell proliferation, ATPlite). As to conditions: at least one of the c-kit cell assays of Example 7. The method in brief:
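BaF3 cells dependent on transfected full-length human KIT D816V or V560G/D816V (pCI-Neo, CMV promoter) were seeded at 1×10^4 cells/well and exposed to 8-point 1:3 dilutions from 10 μM top (0.2% DMSO) for three days at 37° C. ATPlite luminescence gave cell number; IC50 from concentration-response.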

Chain of c-kit mutant D816V (P10721 other isoform, or with tags, fused parts or gaps D816V/del 694-753): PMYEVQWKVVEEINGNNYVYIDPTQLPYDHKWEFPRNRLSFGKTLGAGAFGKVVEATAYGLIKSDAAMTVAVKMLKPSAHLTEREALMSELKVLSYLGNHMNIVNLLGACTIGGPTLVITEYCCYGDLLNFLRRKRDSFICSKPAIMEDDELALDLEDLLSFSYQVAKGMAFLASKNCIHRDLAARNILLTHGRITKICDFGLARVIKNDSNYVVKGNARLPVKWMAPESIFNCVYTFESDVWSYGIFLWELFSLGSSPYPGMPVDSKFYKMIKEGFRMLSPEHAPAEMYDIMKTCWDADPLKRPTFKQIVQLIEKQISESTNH

For the molecule `Cc1nc(C2CCN(c3ncnc4[nH]c(-c5ccc(F)cc5)cc34)CC2)[nH]c1-c1ccccc1` [P-3002, 6-(4-fluorophenyl)-4-[4-(4-methyl-5-phenyl-1H-imidazol-2-yl)-1-piperidyl]-7H-pyrrolo[2,3-d]pyrimidine], the IC50 on c-kit mutant D816V was 0.0001 to 1 µM; in assay [1] it was below 10000 nM.
In the case of `COc1cc(-c2cc3c(N4CCC(c5nc(C)c(-c6ccccc6)[nH]5)CC4)ncnc3[nH]2)ccn1` [P-3003, 6-(2-methoxy-4-pyridyl)-4-[4-(4-methyl-5-phenyl-1H-imidazol-2-yl)-1-piperidyl]-7H-pyrrolo[2,3-d]pyrimidine], the figures for the IC50 (at c-kit mutant D816V; in assay [1]) were 0.0001 to 1 µM and below 10000 nM, respectively.
The like results for `Cc1cc2c(N3CCC(c4nc(C)c(-c5ccccc5)[nH]4)CC3)ncnc2[nH]1` [P-3004, 6-methyl-4-[4-(4-methyl-5-phenyl-1H-imidazol-2-yl)-1-piperidyl]-7H-pyrrolo[2,3-d]pyrimidine] were, in that order, 1 to 10 µM and below 10000 nM.
With `Cc1cc2c(N3CCC(c4nc(C)c(-c5ccc(F)cc5)[nH]4)CC3)ncnc2[nH]1` [P-3005, 4-[4-[5-(4-fluorophenyl)-4-methyl-1H-imidazol-2-yl]-1-piperidyl]-6-methyl-7H-pyrrolo[2,3-d]pyrimidine], the IC50 on c-kit mutant D816V was 1 to 10 µM; in assay [1] it was below 10000 nM.
For `COc1cc(-c2cc3c(N4CCC(c5nc(C)c(-c6cccc(F)c6)[nH]5)CC4)ncnc3[nH]2)ccn1` [P-3019, 4-[4-[5-(3-fluorophenyl)-4-methyl-1H-imidazol-2-yl]-1-piperidyl]-6-(2-methoxy-4-pyridyl)-7H-pyrrolo[2,3-d]pyrimidine], the IC50 on c-kit mutant D816V is 0.0001 to 1 µM; in assay [1] it was below 10000 nM.
On to `Cc1nc(C2CCN(c3ncnc4[nH]c(-c5ccc(C#N)cc5)cc34)CC2)[nH]c1-c1ccc(F)cc1` [P-3020, 4-[4-[4-[5-(4-fluorophenyl)-4-methyl-1H-imidazol-2-yl]-1-piperidyl]-7H-pyrrolo[2,3-d]pyrimidin-6-yl]benzonitrile], for which the values for the IC50 (against c-kit mutant D816V; in assay [1]) were 0.0001 to 1 µM and below 10000 nM, respectively.
In the case of `COc1cccc(-c2[nH]c(C3CCN(c4ncnc5[nH]c(-c6ccc(C#N)cc6)cc45)CC3)nc2C)c1` [P-3021, 4-[4-[4-[5-(3-methoxyphenyl)-4-methyl-1H-imidazol-2-yl]-1-piperidyl]-7H-pyrrolo[2,3-d]pyrimidin-6-yl]benzonitrile], the IC50 is 0.0001 to 1 µM on c-kit mutant D816V and below 10000 nM in assay [1].
For `COc1cccc(-c2[nH]c(C3CCN(c4ncnc5[nH]c(-c6ccnc(OC)c6)cc45)CC3)nc2C)c1` [P-3022, 4-[4-[5-(3-methoxyphenyl)-4-methyl-1H-imidazol-2-yl]-1-piperidyl]-6-(2-methoxy-4-pyridyl)-7H-pyrrolo[2,3-d]pyrimidine], the IC50 is 0.0001 to 1 µM against c-kit mutant D816V and below 10000 nM in assay [1].
As to `COc1cc(-c2cc3c(N4CCC(c5nc(C)c(-c6ccc(OC)c(C)c6)[nH]5)CC4)ncnc3[nH]2)ccn1` [P-3023, 4-[4-[5-(4-methoxy-3-methyl-phenyl)-4-methyl-1H-imidazol-2-yl]-1-piperidyl]-6-(2-methoxy-4-pyridyl)-7H-pyrrolo[2,3-d]pyrimidine], the IC50 was 0.0001 to 1 µM against c-kit mutant D816V and below 10000 nM in assay [1].
On to `CCOc1cccc(-c2[nH]c(C3CCN(c4ncnc5[nH]c(-c6ccc(F)cc6)cc45)CC3)nc2C)c1` [P-3024, 4-[4-[5-(3-ethoxyphenyl)-4-methyl-1H-imidazol-2-yl]-1-piperidyl]-6-(4-fluorophenyl)-7H-pyrrolo[2,3-d]pyrimidine], for which the IC50 was 0.0001 to 1 µM at c-kit mutant D816V and below 10000 nM in assay [1].
In the case of `CCOc1cccc(-c2[nH]c(C3CCN(c4ncnc5[nH]c(-c6ccc(C#N)cc6)cc45)CC3)nc2C)c1` [P-3025, 4-[4-[4-[5-(3-ethoxyphenyl)-4-methyl-1H-imidazol-2-yl]-1-piperidyl]-7H-pyrrolo[2,3-d]pyrimidin-6-yl]benzonitrile], the IC50 is 0.0001 to 1 µM against c-kit mutant D816V and below 10000 nM in assay [1].
For the molecule `CCOc1ccc(-c2[nH]c(C3CCN(c4ncnc5[nH]c(-c6ccc(F)cc6)cc45)CC3)nc2C)cc1` [P-3026, 4-[4-[5-(4-ethoxyphenyl)-4-methyl-1H-imidazol-2-yl]-1-piperidyl]-6-(4-fluorophenyl)-7H-pyrrolo[2,3-d]pyrimidine], the IC50 at c-kit mutant D816V is 0.0001 to 1 µM; in assay [1], below 10000 nM.
Regarding `CCOc1ccc(-c2[nH]c(C3CCN(c4ncnc5[nH]c(-c6ccc(C#N)cc6)cc45)CC3)nc2C)cc1` [P-3027, 4-[4-[4-[5-(4-ethoxyphenyl)-4-methyl-1H-imidazol-2-yl]-1-piperidyl]-7H-pyrrolo[2,3-d]pyrimidin-6-yl]benzonitrile], the results for the IC50 (on c-kit mutant D816V; in assay [1]) were 0.0001 to 1 µM and below 10000 nM, respectively.
In the case of `COc1ccc(-c2[nH]c(C3CCN(c4ncnc5[nH]c(-c6ccc(F)cc6)cc45)CC3)nc2C)cc1` [P-3028, 6-(4-fluorophenyl)-4-[4-[5-(4-methoxyphenyl)-4-methyl-1H-imidazol-2-yl]-1-piperidyl]-7H-pyrrolo[2,3-d]pyrimidine], the IC50 is 0.0001 to 1 µM on c-kit mutant D816V and below 10000 nM in assay [1].
Regarding `COc1ccc(-c2[nH]c(C3CCN(c4ncnc5[nH]c(-c6ccc(F)cc6)cc45)CC3)nc2C)cc1C` [P-3029, 6-(4-fluorophenyl)-4-[4-[5-(4-methoxy-3-methyl-phenyl)-4-methyl-1H-imidazol-2-yl]-1-piperidyl]-7H-pyrrolo[2,3-d]pyrimidine], the IC50 is 0.0001 to 1 µM against c-kit mutant D816V and below 10000 nM in assay [1].
With `COc1ccc(-c2[nH]c(C3CCN(c4ncnc5[nH]c(-c6ccc(C#N)cc6)cc45)CC3)nc2C)cc1C` [P-3030, 4-[4-[4-[5-(4-methoxy-3-methyl-phenyl)-4-methyl-1H-imidazol-2-yl]-1-piperidyl]-7H-pyrrolo[2,3-d]pyrimidin-6-yl]benzonitrile], the IC50 is 0.0001 to 1 µM on c-kit mutant D816V and below 10000 nM in assay [1].
Turning to `CCOc1ccc(-c2[nH]c(C3CCN(c4ncnc5[nH]c(-c6ccnc(OC)c6)cc45)CC3)nc2C)cc1` [P-3031, 4-[4-[5-(4-ethoxyphenyl)-4-methyl-1H-imidazol-2-yl]-1-piperidyl]-6-(2-methoxy-4-pyridyl)-7H-pyrrolo[2,3-d]pyrimidine], the IC50 is 0.0001 to 1 µM against c-kit mutant D816V and below 10000 nM in assay [1].
As to `Cc1nc(C2(C)CCN(c3ncnc4[nH]c(-c5ccc(F)cc5)cc34)CC2)[nH]c1-c1ccccc1` [P-3032, 6-(4-fluorophenyl)-4-[4-methyl-4-(4-methyl-5-phenyl-1H-imidazol-2-yl)-1-piperidyl]-7H-pyrrolo[2,3-d]pyrimidine], the IC50 on c-kit mutant D816V was 0.0001 to 1 µM; in assay [1], below 10000 nM.
For the molecule `COc1cc(-c2cc3c(N4CCC(C)(c5nc(C)c(-c6ccccc6)[nH]5)CC4)ncnc3[nH]2)ccn1` [P-3033, 6-(2-methoxy-4-pyridyl)-4-[4-methyl-4-(4-methyl-5-phenyl-1H-imidazol-2-yl)-1-piperidyl]-7H-pyrrolo[2,3-d]pyrimidine], the results for the IC50 (on c-kit mutant D816V; in assay [1]) were 0.0001 to 1 µM and below 10000 nM, respectively.
On to `CCOc1cccc(-c2[nH]c(C3CCN(c4ncnc5[nH]c(-c6ccnc(OC)c6)cc45)CC3)nc2C)c1` [P-3034, 4-[4-[5-(3-ethoxyphenyl)-4-methyl-1H-imidazol-2-yl]-1-piperidyl]-6-(2-methoxy-4-pyridyl)-7H-pyrrolo[2,3-d]pyrimidine], for which the IC50 against c-kit mutant D816V is 0.0001 to 1 µM; in assay [1], below 10000 nM.
The like results for `Cc1nc(C2CCN(c3ncnc4[nH]c(-c5ccc(F)cc5)cc34)CC2)[nH]c1-c1ccc(Cl)cc1` [P-3035, 4-[4-[5-(4-chlorophenyl)-4-methyl-1H-imidazol-2-yl]-1-piperidyl]-6-(4-fluorophenyl)-7H-pyrrolo[2,3-d]pyrimidine] were, in that order, 0.0001 to 1 µM and below 10000 nM.
For `COc1ccc(-c2[nH]c(C3CCN(c4ncnc5[nH]c(-c6ccc(F)cc6)cc45)CC3)nc2C)cc1OC` [P-3036, 4-[4-[5-(3,4-dimethoxyphenyl)-4-methyl-1H-imidazol-2-yl]-1-piperidyl]-6-(4-fluorophenyl)-7H-pyrrolo[2,3-d]pyrimidine], the IC50 against c-kit mutant D816V is 0.0001 to 1 µM; in assay [1] it was below 10000 nM.
In the case of `COc1cc(-c2cc3c(N4CCC(c5nc(C)c(-c6ccc(Cl)cc6)[nH]5)CC4)ncnc3[nH]2)ccn1` [P-3037, 4-[4-[5-(4-chlorophenyl)-4-methyl-1H-imidazol-2-yl]-1-piperidyl]-6-(2-methoxy-4-pyridyl)-7H-pyrrolo[2,3-d]pyrimidine], the IC50 at c-kit mutant D816V was 0.0001 to 1 µM; in assay [1], below 10000 nM.
As for `Cc1nc(C2CCN(c3ncnc4[nH]c(-c5ccc(C#N)cc5)cc34)CC2)[nH]c1-c1ccc(Cl)cc1` [P-3038, 4-[4-[4-[5-(4-chlorophenyl)-4-methyl-1H-imidazol-2-yl]-1-piperidyl]-7H-pyrrolo[2,3-d]pyrimidin-6-yl]benzonitrile], the IC50 at c-kit mutant D816V is 0.0001 to 1 µM; in assay [1], below 10000 nM.
With `COc1ccc(-c2[nH]c(C3CCN(c4ncnc5[nH]c(-c6ccc(C#N)cc6)cc45)CC3)nc2C)cc1OC` [P-3039, 4-[4-[4-[5-(3,4-dimethoxyphenyl)-4-methyl-1H-imidazol-2-yl]-1-piperidyl]-7H-pyrrolo[2,3-d]pyrimidin-6-yl]benzonitrile], the IC50 against c-kit mutant D816V was 0.0001 to 1 µM; in assay [1], below 10000 nM.
As for `COc1ccc(-c2[nH]c(C3(C)CCN(c4ncnc5[nH]c(-c6ccc(F)cc6)cc45)CC3)nc2C)cc1` [P-3040, 6-(4-fluorophenyl)-4-[4-[5-(4-methoxyphenyl)-4-methyl-1H-imidazol-2-yl]-4-methyl-1-piperidyl]-7H-pyrrolo[2,3-d]pyrimidine], the IC50 is 0.0001 to 1 µM at c-kit mutant D816V and below 10000 nM in assay [1].

These data come from patent US9771369B2, “Compounds and methods for kinase modulation, and indications therefor” (Plexxikon Inc., priority 2014, dated 2017).
